Test results as given in patent US20240132484A1, “BROAD SPECTRUM ANTIVIRAL COMPOUNDS TARGETING THE SKI COMPLEX” (priority 2020, published 2024).
Several values for one entry are separate records, joined by “and”; a condition that tells them apart may be missing. Equal entries are not always repeated. Where two headings read alike, the source gives them in different places.

Assays:
WDR61 = WDR61 (Homo sapiens, UniProt Q9GZS3); experiment: Surface Plasmon Resonance with pure WDR61 protein
cells (nuclei count) = details: for Toxicity Data: Average, Mean: average of Exp 1-3 (SMW475, SMW477, SMW478), n 9; for Toxicity Data, Percentage Relative to Appropriate DMSO Control, Mean: Average of Exp 1 and Exp 2, n=4; for Toxicity Data, Percentage Relative to Appropriate DMSO Control: single wells
SARS2 = type: cell-based, SARS-CoV-2; details: for Percentage Infection Relative to Appropriate DMSO Control: Exp 1 (SMW454), single wells; for Percentage Infection Relative to Appropriate DMSO Control / Infection Data: Percentage Infection Relative to Appropriate DMSO Control: avg background subtraction; for Infection Data: Percentage Infection Relative to Appropriate DMSO Control: replicate wells; for Infection Data: Average, Mean: average of Exp 1-3 (SMW475, SMW477, SMW478), n 9

In the case of `COc1ccc(CNCCc2ccccc2F)c(OCC(O)CN2CCN(C)CC2)c1` (racemic) [UMB18G], the “direct binding to WDR61 by SPR” value (WDR61) was “binding directly to WDR61”, the “Toxicity Data: Average, Mean” value (cells (nuclei count); 1 uM) was 125.37% and the “Relative cell count to DMSO controls, Average 1 μM” value (cells (nuclei count); 1 μM, toxicity data, 100=DMSO control) was 123.37. For the same compound, the “Toxicity Data: Average, Mean” value (cells (nuclei count); 5 uM) was 151.57%, the “Relative cell count to DMSO controls, Average 5 μM” value (cells (nuclei count); 5 μM, toxicity data, 100=DMSO control) was 134.20 and the “Toxicity Data: Average, Mean” value (cells (nuclei count); 10 uM) was 148.72%. The “Relative cell count to DMSO controls, Average 10 μM” value (cells (nuclei count); 10 μM, toxicity data, 100=DMSO control) was 139.68, the “Toxicity Data: Average, Mean” value (cells (nuclei count); 25 uM) was 110.49% and the “Relative cell count to DMSO controls, Average 25 μM” value (cells (nuclei count); 25 μM, toxicity data, 100=DMSO control) was 116.94. The “Toxicity Data: Average, Mean” value (cells (nuclei count); 50 uM) was 58.67%, the “Relative cell count to DMSO controls, Average 50 μM” value (cells (nuclei count); 50 μM, toxicity data, 100=DMSO control) was 85.72 and the “Toxicity Data, Average, Mean” value (cells (nuclei count); Average of Exp 1-3, n 9, 1 uM) was 108.03%. The “Toxicity Data, Average, Mean” value (cells (nuclei count); Average of Exp 1-3, n 9, 5 uM) was 120.64%, the “Toxicity Data, Average, Mean” value (cells (nuclei count); Average of Exp 1-3, n 9, 10 uM) was 114.41% and the “Toxicity Data, Average, Mean” value (cells (nuclei count); Average of Exp 1-3, n 9, 25 uM) was 112.46%. The “Toxicity Data, Average, Mean” value (cells (nuclei count); Average of Exp 1-3, n 9, 50 uM) was 78.15%, the “Toxicity Data, Percentage Relative to Appropriate DMSO Control, Mean” value (cells (nuclei count); 1 uM) was 121.38% and 131.60% and the “Toxicity Data, Percentage Relative to Appropriate DMSO Control, Mean” value (cells (nuclei count); 5 uM) was 129.65% and 137.65%. The “Toxicity Data, Percentage Relative to Appropriate DMSO Control, Mean” value (cells (nuclei count); 10 uM) was 137.10% and 131.04%, the “Toxicity Data, Percentage Relative to Appropriate DMSO Control, Mean” value (cells (nuclei count); 25 uM) was 118.22% and 120.31% and the “Toxicity Data, Percentage Relative to Appropriate DMSO Control, Mean” value (cells (nuclei count); 50 uM) was 93.28% and 100.37%. The “Toxicity Data, nuclei count relative to DMSO controls” value (cells (nuclei count); Exp 1 (SMW454), 1 uM) was 94.8% and 106.7% and 107.9%, the “Toxicity Data, nuclei count relative to DMSO controls” value (cells (nuclei count); Exp 1 (SMW454), 5 uM) was 92.6% and 104.0% and 109.1% and the “Toxicity Data, nuclei count relative to DMSO controls” value (cells (nuclei count); Exp 1 (SMW454), 10 uM) was 94.4% and 107.2% and 106.3%. The “Toxicity Data, nuclei count relative to DMSO controls” value (cells (nuclei count); Exp 1 (SMW454), 25 uM) was 98.3% and 107.4% and 105.6%, the “Toxicity Data, nuclei count relative to DMSO controls” value (cells (nuclei count); Exp 1 (SMW454), 50 uM) was 95.5% and 101.6% and 97.7% and the “Toxicity Data, Percentage Relative to Appropriate DMSO Control” value (cells (nuclei count); Exp 1 (SMW506), 10 uM) was 114% and 126% and 122%. The “Toxicity Data, Percentage Relative to Appropriate DMSO Control” value (cells (nuclei count); Exp 1 (SMW506), 25 uM) was 111% and 119% and 121%, the “Toxicity Data, nuclei count relative to DMSO controls” value (cells (nuclei count); Exp 2 (SMW466), 1 uM) was 77.1% and 105.3% and 105.6% and the “Toxicity Data, nuclei count relative to DMSO controls” value (cells (nuclei count); Exp 2 (SMW466), 5 uM) was 80.8% and 132.0% and 142.0%. The “Toxicity Data, nuclei count relative to DMSO controls” value (cells (nuclei count); Exp 2 (SMW466), 10 uM) was 78.2% and 135.1% and 144.2%, the “Toxicity Data, nuclei count relative to DMSO controls” value (cells (nuclei count); Exp 2 (SMW466), 25 uM) was 68.6% and 126.9% and 132.7% and the “Toxicity Data, Percentage Relative to Appropriate DMSO Control” value (cells (nuclei count); Exp 2 (SMW507), 5 uM) was 144% and 156% and 158%. For the same compound, the “Toxicity Data, Percentage Relative to Appropriate DMSO Control” value (cells (nuclei count); Exp 2 (SMW507), 10 uM) was 148% and 160% and 140%, the “Toxicity Data, nuclei count relative to DMSO controls” value (cells (nuclei count); Exp 3 (SMW480), 1 uM) was 110.1% and 127.5% and 137.1% and the “Toxicity Data, nuclei count relative to DMSO controls” value (cells (nuclei count); Exp 3 (SMW480), 5 uM) was 113.4% and 154.3% and 157.5%. The “Toxicity Data, nuclei count relative to DMSO controls” value (cells (nuclei count); Exp 3 (SMW480), 10 uM) was 89.6% and 123.8% and 150.9%, the “Toxicity Data, nuclei count relative to DMSO controls” value (cells (nuclei count); Exp 3 (SMW480), 50 uM) was 60.8% and 69.5% and 85.1% and the “Relative cell count to DMSO controls, Average (for correlation analysis)” value (cells (nuclei count); average value over the 5 tested concentrations (1 to 50 uM)) was 119.98. For the same compound, the “Percentage Infection Relative to Appropriate DMSO Control” value (SARS2; 1 uM) was 79.68% and 100.00% and 102.30%, the “Infection Data: Percentage Infection Relative to Appropriate DMSO Control” value (SARS2; 1 uM, Exp 1 (SMW475)) was 59.52% and 81.22% and 48.39% and the “Infection Data: Percentage Infection Relative to Appropriate DMSO Control” value (SARS2; 1 uM, Exp 2 (SMW477)) was 30.54% and 44.61% and 49.97%. The “Infection Data: Percentage Infection Relative to Appropriate DMSO Control” value (SARS2; 1 uM, Exp 3 (SMW478)) was 92.92% and 83.96% and 93.97%, the “Infection Data: Average, Mean” value (SARS2; 1 uM) was 65.01% and the “Percentage Infection Relative to Appropriate DMSO Control” value (SARS2; 5 uM) was 82.33% and 99.01% and 94.32%. For the same compound, the “Infection Data: Percentage Infection Relative to Appropriate DMSO Control” value (SARS2; 5 uM, Exp 1 (SMW475)) was 11.41% and 21.71% and 5.92%, the “Infection Data: Percentage Infection Relative to Appropriate DMSO Control” value (SARS2; 5 uM, Exp 2 (SMW477)) was 9.13% and 26.77% and 20.94% and the “Infection Data: Percentage Infection Relative to Appropriate DMSO Control” value (SARS2; 5 uM, Exp 3 (SMW478)) was 28.65% and 43.74% and 34.06%. The “Infection Data: Average, Mean” value (SARS2; 5 uM) was 22.48%, the “Percentage Infection Relative to Appropriate DMSO Control” value (SARS2; 10 uM) was 84.64% and 105.70% and 105.02% and the “Infection Data: Percentage Infection Relative to Appropriate DMSO Control” value (SARS2; 10 uM, Exp 1 (SMW475)) was 7.16% and 14.38% and 4.59%. The “Infection Data: Percentage Infection Relative to Appropriate DMSO Control” value (SARS2; 10 uM, Exp 2 (SMW477)) was 10.76% and 16.40% and 10.07%, the “Infection Data: Percentage Infection Relative to Appropriate DMSO Control” value (SARS2; 10 uM, Exp 3 (SMW478)) was 46.05% and 27.62% and 30.93% and the “Infection Data: Average, Mean” value (SARS2; 10 uM) was 18.66%.
